Results on eleven compounds are retold here after EP1939191A1, “Furan derivatives, method of synthesis and uses thereof” (Neuropharma S.A., priority 2006, dated 2008).

The target in the assay is Recombinant human glycogen synthase kinase 3 beta (Homo sapiens, UniProt P49841). As to the kind of experiment: GSK-3 beta inhibition assay (33P-ATP, GS-2 peptide substrate, phosphocellulose filter counting). Type of assay: biochemical. Conditions: result in percentage of enzyme activity (lower = more inhibition); for activity at 25 µM: test compound at 25µM; for activity at 50 µM: test compound at 50µM. The method, then: The GSK-3 beta activity of the compounds of formula (I) according to the present invention was determined by incubation of a mixture of recombinant human GSK-3 enzyme, a phosphate source and GSK-3 substrate in the presence and in the absence of the corresponding test compound, and by measuring the GSK-3 activity of this mixture. The compounds where tested at final concentrations of 25 and 50 µM.
Recombinant human glycogen synthase kinase 3 beta, sequence (P49841 whole entry): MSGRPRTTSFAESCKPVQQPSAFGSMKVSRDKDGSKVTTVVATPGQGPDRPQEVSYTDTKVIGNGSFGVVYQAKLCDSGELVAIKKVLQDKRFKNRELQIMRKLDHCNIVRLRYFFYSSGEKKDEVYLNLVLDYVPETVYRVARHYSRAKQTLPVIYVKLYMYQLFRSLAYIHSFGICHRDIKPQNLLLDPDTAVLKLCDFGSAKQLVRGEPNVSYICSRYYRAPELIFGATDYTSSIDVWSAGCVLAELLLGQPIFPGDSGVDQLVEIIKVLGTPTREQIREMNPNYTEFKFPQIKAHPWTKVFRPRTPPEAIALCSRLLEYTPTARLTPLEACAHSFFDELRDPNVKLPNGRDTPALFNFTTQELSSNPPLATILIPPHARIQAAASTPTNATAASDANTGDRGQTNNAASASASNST
Recombinant human glycogen synthase kinase 3 beta was assayed in MOPS 8 mM pH 7.3, EDTA 0.2 mM, MgCl2 10 mM and sodium orthovanadate 0.25 mM in the presence of 62.5 µM of Phospho-Glycogen Synthase Peptide-2 (GS-2), 0.5 µCi gamma-^33P-ATP and unlabelled ATP at a final concentration of 12.5 µM. The final assay volume was 20 µl. After incubation for 30 minutes at 30 °C, 15 µl aliquots were spotted onto P81 phosphocellulose papers. Filters were washed four times for at least 10 minutes each and counted with 1.5 ml of scintillation cocktail in a scintillation counter.
The compounds of formula (I) of the present invention where submitted to the above indicated assays, in order to determine both their GSK-3 inhibition activity and BACE activity inhibition. The results are indicated in Table I, in percentage of the respective enzyme activity.

As for `CC(=CC=CC(C)CCC=C(C)COC(=O)C(C)(C)C)CCCc1ccoc1` (stereo not shown) [2,2-Dimethyl-propionic acid 13-furan-3-yl-2,6,10-trimethyl-trideca-2,7,9-trienyl ester], the activity at 25 µM was determined as 45% and the activity at 50 µM is 27%.
On to `CC(C)(C)[Si](OCC(O)c1ccco1)(c1ccccc1)c1ccccc1` (stereo not shown) [2-(tert-Butyl-diphenyl-silanyloxy)-1-furan-2-yl-ethanol], for which the activity at 50 µM turned out to be 48.6%.
Take `OCC=Cc1ccoc1` [3-Furan-3-yl-prop-2-en-1-ol]: the activity at 25 µM came to 61.1% and the activity at 50 µM is 55.6%.
The corresponding values for `CCOC(=O)C=C(C)CCCc1ccoc1` [6-Furan-3-yl-3-methyl-hex-2-enoic acid ethyl ester] are 83.7% and 67.4%.
For the compound `CC(=CCCC(C)C=CC=C(C)CCCc1ccoc1)CO` (stereo not shown) [13-Furan-3-yl-2,6,10-trimethyl-trideca-2,7,9-trien-1-ol], the activity at 25 µM was found to be 83.7% and the activity at 50 µM stood at 61.2%.
As to `CC(C)(C)[Si](OCCc1ccco1)(c1ccccc1)c1ccccc1` [tert-Butyl-(2-furan-2-yl-ethoxy)-diphenyl-silane], the activity at 50 µM was 47.6%.
Take `CC(C)(C)[Si](OCCCc1ccco1)(c1ccccc1)c1ccccc1` [tert-Butyl-(3-furan-2-yl-propoxy)-diphenyl-silane]: the activity at 50 µM stood at 33.5%.
Same read-out and setting: in the case of `CC(C)(C)[Si](OCCCCCc1ccco1)(c1ccccc1)c1ccccc1` [tert-Butyl-(5-furan-2-yl-pentyloxy)-diphenyl-silane] it was 16.1%.
As for `CC(C)(C)[Si](OCCCCCCc1ccco1)(c1ccccc1)c1ccccc1` [tert-Butyl-(6-furan-2-yl-hexyloxy)-diphenyl-silane], the activity at 50 µM was 5.08%.
Regarding `CC(=CC=CC(C)CCCO[Si](c1ccccc1)(c1ccccc1)C(C)(C)C)CCCc1ccoc1` (stereo not shown) [tert-Butyl-(11-furan-3-yl-4,8-dimethyl-undeca-5,7-dienyloxy)-diphenyl-silane], the activity at 25 µM worked out at 29% and the activity at 50 µM came out at 14%.
Turning to `CC(C)(C)[Si](OCCCSCc1ccco1)(c1ccccc1)c1ccccc1` [tert-Butyl-[3-(furan-2-ylmethylsulfanyl)-propoxy]-diphenyl-silane], the activity at 50 µM stood at 17.4%.
